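Assay format: 96-well plates, 48-hour exposure. GI50 is the concentration that inhibits growth by half.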 Calls of active or inactive are those of the source. Rule as the data show it: active = GI50 up to about 1.1 µM and inactive = higher.
Assays:
Experiment in all cases: DTP human tumour cell line panel, 48 h
BT-549 = tested on: BT-549
DLD-1 = tested on: DLD-1
DMS-114 = tested on: DMS-114
DMS-273 = tested on: DMS-273
HOP-18 = tested on: HOP-18
LXFL 529 = tested on: LXFL 529
SNB-78 = tested on: SNB-78
T47D = tested on: T47D
RXF 631 = tested on: RXF 631

SMILES: COCC(=O)OC1CCn2c1nc1c2C(=O)C(C)=C(NC(C)=O)C1=O (configuration not stated)
- GI50 (BT-549): 11.7 µM (inactive)
- GI50 (DLD-1): 12.9 µM (inactive)
- GI50 (DMS-114): 1.82 µM (inactive)
- GI50 (DMS-273): 17.5 µM (inactive)
- GI50 (HOP-18): 27.9 µM (inactive)
- GI50 (LXFL 529): 3.35 µM (inactive)
- GI50 (SNB-78): 1.81 µM (inactive)
- GI50 (T47D): 0.787 µM (active)

SMILES: O=C1NC2(CCCCCC2)C2CCCCCCC12O (configuration not stated)
- GI50 (DLD-1): > 100 µM (inactive)
- GI50 (DMS-114): > 100 µM (inactive)
- GI50 (DMS-273): > 100 µM (inactive)
- GI50 (HOP-18): > 100 µM (inactive)
- GI50 (LXFL 529): > 100 µM (inactive)
- GI50 (SNB-78): > 100 µM (inactive)

SMILES: O=C1Nc2ccccc2N/C1=C\C(=O)c1ccccc1O
- GI50 (DLD-1): > 100 µM (inactive)
- GI50 (DMS-114): > 100 µM (inactive)
- GI50 (DMS-273): > 100 µM (inactive)
- GI50 (HOP-18): > 100 µM (inactive)
- GI50 (LXFL 529): > 100 µM (inactive)
- GI50 (SNB-78): > 100 µM (inactive)

SMILES: Brc1cccc(/C=N/C23CC4CC(CC(C4)C2)C3)c1
- GI50 (DLD-1): > 100 µM (inactive)
- GI50 (DMS-114): > 100 µM (inactive)
- GI50 (DMS-273): > 100 µM (inactive)
- GI50 (HOP-18): > 100 µM (inactive)
- GI50 (LXFL 529): > 100 µM (inactive)
- GI50 (SNB-78): > 100 µM (inactive)

SMILES: CCC(=C(c1ccc(OCc2ccccc2)cc1)c1ccc(OCc2ccccc2)cc1)c1ccc(OC)cc1
- GI50 (DLD-1): > 100 µM (inactive)
- GI50 (DMS-114): > 100 µM (inactive)
- GI50 (DMS-273): > 100 µM (inactive)
- GI50 (LXFL 529): > 100 µM (inactive)
- GI50 (SNB-78): > 100 µM (inactive)

SMILES: CC12OC3(O)C4C5CC(C6C5C3C61)C42 (configuration not stated)
- GI50 (DLD-1): > 100 µM (inactive)
- GI50 (DMS-114): > 100 µM (inactive)
- GI50 (DMS-273): > 100 µM (inactive)
- GI50 (HOP-18): > 100 µM (inactive)
- GI50 (LXFL 529): 22.9 µM (inactive)
- GI50 (RXF 631): > 100 µM (inactive)
- GI50 (SNB-78): > 100 µM (inactive)

SMILES: COc1ccc(O)cc1C(O)c1ccccc1 (configuration not stated)
- GI50 (DLD-1): > 100 µM (inactive)
- GI50 (DMS-273): > 100 µM (inactive)
- GI50 (HOP-18): > 100 µM (inactive)
- GI50 (LXFL 529): > 100 µM (inactive)
- GI50 (SNB-78): > 100 µM (inactive)

SMILES: O=C(Cc1ccccc1)NN1C(=O)C(Cl)C1c1ccccc1 (configuration not stated)
- GI50 (DLD-1): > 100 µM (inactive)
- GI50 (DMS-114): 33.9 µM (inactive)
- GI50 (HOP-18): > 100 µM (inactive)
- GI50 (LXFL 529): 20 µM (inactive)
- GI50 (SNB-78): > 100 µM (inactive)

SMILES: O=c1c2cccc3cccc(c4oc5c6cccc7cccc(c(=O)c5c14)c76)c32
- GI50 (DLD-1): 15.1 µM (inactive)
- GI50 (DMS-114): 12.5 µM (inactive)
- GI50 (DMS-273): 12.8 µM (inactive)
- GI50 (HOP-18): 14.6 µM (inactive)
- GI50 (LXFL 529): 11.1 µM (inactive)
- GI50 (RXF 631): 11.4 µM (inactive)
- GI50 (SNB-78): 13.7 µM (inactive)

SMILES: O=C(C(=O)c1cc2ccccc2[nH]1)c1cc2ccccc2[nH]1
- GI50 (DLD-1): > 316 µM (inactive)
- GI50 (DMS-114): > 220 µM (inactive)
- GI50 (DMS-273): > 318 µM (inactive)
- GI50 (LXFL 529): > 210 µM (inactive)
- GI50 (RXF 631): > 347 µM (inactive)
- GI50 (SNB-78): > 347 µM (inactive)

SMILES: COc1ccc(CN[C@H]2CCc3cc(OC)c(OC)c(OC)c3-c3ccc(SC)c(=O)cc32)c(OC)c1OC
- GI50 (DLD-1): 0.0327 µM (active)
- GI50 (DMS-114): 0.019 µM (active)
- GI50 (DMS-273): 0.0267 µM (active)
- GI50 (HOP-18): 58.3 µM (inactive)
- GI50 (LXFL 529): 0.0447 µM (active)
- GI50 (SNB-78): 0.0394 µM (active)

SMILES: C=CCC1=C(C)C[C@@H]2CCC(=O)C=C12
- GI50 (DMS-114): > 100 µM (inactive)
- GI50 (DMS-273): > 100 µM (inactive)
- GI50 (LXFL 529): > 100 µM (inactive)
- GI50 (RXF 631): > 100 µM (inactive)
- GI50 (SNB-78): > 100 µM (inactive)

SMILES: CC(=O)SC(SC(C)=O)SC(C)=O
- GI50 (DLD-1): > 100 µM (inactive)
- GI50 (DMS-114): 31.1 µM (inactive)
- GI50 (DMS-273): > 100 µM (inactive)
- GI50 (HOP-18): > 100 µM (inactive)
- GI50 (LXFL 529): 51.8 µM (inactive)
- GI50 (RXF 631): > 100 µM (inactive)
- GI50 (SNB-78): > 100 µM (inactive)

SMILES: CCCCCCCCC(O)C#CC(N)=O (configuration not stated)
- GI50 (DLD-1): 10.2 µM (inactive)
- GI50 (DMS-114): 3.34 µM (inactive)
- GI50 (DMS-273): 7.28 µM (inactive)
- GI50 (HOP-18): 12.6 µM (inactive)
- GI50 (LXFL 529): 11.2 µM (inactive)
- GI50 (RXF 631): 11.7 µM (inactive)
- GI50 (SNB-78): 15.6 µM (inactive)

SMILES: O=CC1CCC=CC1NC(=O)OCc1ccccc1 (configuration not stated)
- GI50 (DLD-1): 27.2 µM (inactive)
- GI50 (DMS-114): 22.7 µM (inactive)
- GI50 (DMS-273): 27.9 µM (inactive)
- GI50 (HOP-18): > 100 µM (inactive)
- GI50 (LXFL 529): 44.5 µM (inactive)
- GI50 (SNB-78): 50 µM (inactive)
